This passage reports IC50 and inhibition results from patent publication EP4610262A1, “MACROCYCLIC COMPOUND AS CDK9 INHIBITOR AND USE THEREOF” (Artivila Biopharma, priority 2022, dated 2024).

The term IC50 denotes the point on the concentration scale where inhibition reaches its midpoint. As a reminder, the inhibition is how much of the control response was suppressed.

The structures appear in SMILES notation.

Experiment [1] has as its target CDK9 (Homo sapiens, UniProt P50750). The experiment in a line: Inhibition of CDK9 kinase activity (caliper mobility shift assay). Format: biochemical. The settings on record: for IC50: 10 concentrations from 10 µM, three-fold dilutions. Here is the method:
Compounds were tested at a concentration of 10 nM with detection in duplicate wells, or tested at 10 concentrations starting from 10 µM with three-fold serial dilutions, with detection in duplicate wells.
The inhibitory effect of the compounds on the activity of CDK9 protein kinase was detected by the caliper mobility shift assay method. 250 nL of the compound at 100-fold final concentration was transferred to a target 384-well-plate with a dispenser Echo 550. A kinase solution at 2.5-fold final concentration was prepared using 1× kinase buffer. 10 µL of the kinase solution at 2.5-fold final concentration was added to the compound well and positive control well respectively. 10 µL of 1× kinase buffer was added to the negative control well. The 384-well plate was centrifuged at 1000 rpm for 30 seconds and incubated at room temperature for 10 minutes. A mixed solution of ATP and kinase substrate at 5/3-fold final concentration was prepared with 1× kinase buffer, and to the 384-well plate was added with 15 µL per well of the mixed solution of ATP and substrate at 5/3-fold final concentration to start the reaction. The plate was centrifuged at 1000 rpm for 30 seconds, shaken to mix evenly, and incubated at room temperature for a corresponding time. 30 µL of detection stopping solution was added to terminate the kinase reaction. The 384-well plate was centrifuged at 1000 rpm for 30 seconds and shaken to mix evenly. The conversion rate was read with Caliper EZ Reader. The percent conversion inhibition rate = (% positive control conversion rate mean - % sample conversion rate / (% positive control conversion rate mean - % negative control conversion rate mean). Among them: negative control wells represent the conversion rate readings of kinase buffer background wells; positive control wells represent the conversion rate readings of wells without inhibition by compound. With the log value of concentration as the x-axis and the percentage inhibition rate as the y-axis, a dose-response curve was fitted using the log (inhibitor) vs. response -Variable slope of the analysis software GraphPad Prism 5 to obtain the IC50 value of each compound on enzyme activity. Calculation formula: y=Bottom + (Top-Bottom)/(1+10^((LogIC50-x) × hillslope)), x: logarithm of inhibitor concentration; y: % inhibition rate.

For experiment [2], the system named is MV-4-11. The experiment in a line: CDK9 cell activity assay, cell growth inhibition (CellTiter-Glo, 72 hours). Format: cell-based. The following applies: Homo sapiens, MV4-11. Here is the method: (§1) In the CDK9 cell activity assay, the cell line MV-4-11 was cultured in IMDM culture medium containing 10% fetal bovine serum (containing 100 U/mL penicillin and 0.1 g/L streptomycin); the cell line HCC1187 was cultured in RPMI-1640 culture medium containing 10% fetal bovine serum (containing 100 U/mL penicillin and 0.1 g/L streptomycin); the cell line Mia Paca-2 was cultured in DMEM containing 10% fetal bovine serum and 2.5% horse serum (containing 100 U/mL penicillin and 0.1 g/L streptomycin); and the cell line A375 was cultured in RPMI-1640 culture medium containing 10% fetal bovine serum (containing 100 U/mL penicillin and 0.1 g/L streptomycin). All cells were cultured in an incubator with saturated humidity at 37°C with 5% CO2.
(§2) When MV-4-11 cells, HCC1187 cells, Mia Paca-2 cells, and A375 cells grew to 80%-90% confluence, they were digested with trypsin, resuspended, counted, and diluted to a certain cell density with complete medium. 100 µL of the cells was plated into each well of a 96-well plate, and the complete medium was used as a background control. The cells were cultured overnight in an incubator with saturated humidity at 37°C with 5% CO2. The compounds were diluted with DMSO to a final concentration of 200×. 3 µL of the stock solution of the above compounds in DMSO was added to 197 µL of complete medium, and 50 µL of the compound diluted in the medium was added to the cells of each well. The cells were cultured in an incubator with saturated humidity at 37°C with 5% CO2 for 72 hours. After 72 hours, the culture plates were placed at room temperature for equilibrium. 40 µL of CellTiter-Glo® reagent was added to each well. The plate was mixed evenly on a shaker for 2 minutes to lyse the cells then incubated at room temperature for 60 minutes to stabilize the chemiluminescent signal, and the chemiluminescence was read using a PE EnVision microplate reader. The inhibition rate on cell growth was calculated as % Inh = (DMSO well - compound treatment well) / (DMSO well - background well) x 100, and fitting was performed using GraphPad Prism 5 to obtain the IC50 values against cell growth.
(In ATP-based viability assays light output follows the ATP content of the culture.)

Experiment [3] concerns HCC1187. The description is as above. The following applies: Homo sapiens. Format: cell-based. The protocol: as §1, §2

CDK9, sequence (P50750 whole entry): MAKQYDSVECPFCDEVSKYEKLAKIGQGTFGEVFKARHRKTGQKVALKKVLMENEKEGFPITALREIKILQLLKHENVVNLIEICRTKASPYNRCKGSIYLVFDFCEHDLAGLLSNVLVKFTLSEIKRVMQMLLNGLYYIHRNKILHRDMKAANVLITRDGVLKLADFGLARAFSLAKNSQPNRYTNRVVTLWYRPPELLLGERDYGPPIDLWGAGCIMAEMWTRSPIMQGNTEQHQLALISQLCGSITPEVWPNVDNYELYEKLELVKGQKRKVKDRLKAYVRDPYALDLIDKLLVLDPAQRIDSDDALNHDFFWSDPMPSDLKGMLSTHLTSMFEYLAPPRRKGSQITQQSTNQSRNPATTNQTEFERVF
CDK9, sequence (O60563 whole entry partner): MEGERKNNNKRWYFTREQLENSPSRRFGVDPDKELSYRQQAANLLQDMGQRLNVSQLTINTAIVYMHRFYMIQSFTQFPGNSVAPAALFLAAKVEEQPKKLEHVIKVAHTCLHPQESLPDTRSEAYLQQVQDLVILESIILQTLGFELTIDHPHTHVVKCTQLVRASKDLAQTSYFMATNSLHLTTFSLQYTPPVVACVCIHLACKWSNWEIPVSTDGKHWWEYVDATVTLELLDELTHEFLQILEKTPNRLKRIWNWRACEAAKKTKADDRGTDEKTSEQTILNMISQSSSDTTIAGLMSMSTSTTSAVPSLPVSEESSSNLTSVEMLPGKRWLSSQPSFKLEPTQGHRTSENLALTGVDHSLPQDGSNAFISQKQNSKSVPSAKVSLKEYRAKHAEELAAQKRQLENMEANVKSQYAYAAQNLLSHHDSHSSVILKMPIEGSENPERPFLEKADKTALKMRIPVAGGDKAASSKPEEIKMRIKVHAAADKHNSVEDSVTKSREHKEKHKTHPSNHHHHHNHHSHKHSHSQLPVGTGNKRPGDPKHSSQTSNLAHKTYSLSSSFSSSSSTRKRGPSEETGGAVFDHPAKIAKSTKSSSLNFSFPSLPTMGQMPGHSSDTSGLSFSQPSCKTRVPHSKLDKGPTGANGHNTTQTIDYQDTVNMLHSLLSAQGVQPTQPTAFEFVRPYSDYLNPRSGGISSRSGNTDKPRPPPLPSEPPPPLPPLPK

On to `Cc1nc2sc1-c1nc(ncc1F)Nc1cccc(c1)NCCOCCN2` [Compound 5, 2^5-fluoro-1^4-methyl-8-oxa-3,5,11-triaza-1(5,2)-thiazol-2(4,2)-pyrimidina-4(1,3)-benzenacyclodec aphane], for which the IC50 in experiment [1] is less than 100 nM. In experiment [1] (compound at 10 nM, read-out: Inhibition rate on CDK9 kinase activity), the inhibition at 0.01 µM fell in the range of 25 to 49%. Take `Cc1nc2sc1-c1nc(ncc1F)Nc1cccc(c1)NC/C=C\CN2` [Compound 6, (Z)-2^5-fluoro-1^4-methyl-3,5,10-triaza-1(5,2)-thiazolin-2(4,2)-pyrimidina-4(1,3)-benzenacyclodec aphan-7-ene]: in experiment [1], the IC50 lay within 100 to 500 nM. On to `CN1CCN(c2ccc3cc2COCCCCCNc2nc(ncc2Cl)N3)CC1` [Compound 21, 1^5-chloro-3^4-(4-methylpiperazin-1-yl)-5-oxa-2,11-diaza-1(2,4)-pyrimidina-3(1,3)-benzenacyclou ndecaphane], for which the 50% inhibitory concentration (IC50) in experiment [1] was in the range of 100 to 500 nM. Regarding `Cc1ccc2cc1-c1nc(ncc1Cl)Nc1cccc(c1)NCCCCN2` [Compound 22, 2^5-chloro-1^6-methyl-3,5,10-triaza-2(4,2)-pyrimidina-1,4(1,3)-dibenzocyclodecane], in experiment [1], the IC50 is less than 100 nM.

For `c1cc2cc(c1)Nc1nccc(n1)NCCCCCNC2` [Compound 24, 2,5,11-triaza-1(2,4)-pyrimidina-3(1,3)-benzocycloundecaphane], the IC50 in experiment [1] is less than 100 nM. The same measure, in the same setting: to `CN1CCCCCNCc2cccc(c2)Nc2ncc(Cl)c1n2` [Compound 25, 1^5-chloro-11-methyl-2,5,11-triaza-1(2,4)-pyrimidina-3(1,3)-benzocycloundecaphane] belongs less than 100 nM; to `Cc1ccc2cc1-c1nc(ncc1Cl)Nc1cnn(c1)CC/C=C\CN2` [Compound 27, (4^4E,7Z)-2^5-chloro-1^6-methyl-4^1hydro-3,10-diaza-2(4,2)-pyrimidina-4(4,1)-pyrazole-1(1,3)-benz enecyclodecane-7-ene], less than 100 nM. On to `Cc1ccc2cc1-c1nc(ncc1Cl)Nc1cnn(c1)CCCCCN2` [Compound 28, (E)-2^5-chloro-1^6-methyl-4^1hydro-3,10-diaza-2(4,2)-diaza-2(4,2)-pyrimidina-4(4,1)-pyrazola-1(1, 3)-benzenacyclodecaphane], for which the figures for the IC50 in experiment [1] and in experiment [2] were less than 100 nM and less than 250 nM, respectively. As to `Cc1ccc2cc1-c1nc(ncc1F)Nc1cccc(c1)NC/C=C\CN2` [Compound 29, (Z)-2^5-fluoro-1^6-methyl-3,5,10-triaza-2(4,2)-pyrimidina-1,4(1,3)-dibenzenacyclodecaphan-7-ene], in experiment [1], the IC50 is less than 100 nM. The same measure, in the same setting: to `Cc1ccc2cc1-c1nc(ncc1F)Nc1cccc(c1)NCCCCN2` [Compound 30, 2^5-fluoro-1^6-methyl-3,5,10-triaza-2(4,2)-pyrimidina-1,4(1,3)-dibenzenacyclodecaphane] belongs less than 100 nM.

Consider `Clc1cnc2nc1-c1cnn(c1)CC/C=C\CNc1cccc(c1)N2` [Compound 31, (1^4Z,7Z)-2^5-chloro-1^1H-3,5-diaza-2(4,2)-pyrimidina-1(4,1)-pyrazola-4(1,3)-benzenacyclodecaph an-7-ene], for which the figures for the IC50 in experiment [1], in experiment [3] and in experiment [2] were less than 100 nM, 250 to 1000 nM and less than 250 nM, respectively. Regarding `Clc1cnc2nc1-c1cnn(c1)CCCCCNc1cccc(c1)N2` [Compound 32, (Z)-2^5-chloro-1^1H-3,5-diaza-2(4,2)-pyrimidina-1(4,1)-pyrazola-4(1,3)-benzenacyclodecaphane], the IC50 in experiment [1] is less than 100 nM. Still for that read-out and setting: the figure for `Clc1cnc2nc1-c1cnn(c1)CCCCCCn1cc(c(Cl)n1)N2` [Compound 33, (1^4Z,4^4E,7Z)-2^5,4^3-chloro-1^1H,4^1H-3-aza-2(4,2)-pyrimidina-1,4(4,1)-bipyrazolacyclodecaphane] is 500 to 1000 nM. Same read-out and setting: to `Clc1cnc2nc1-c1cccc(c1)OCCCCNCc1cccc(c1)N2` [Compound 34, 2^5-chloro-11-oxa-3,6-diaza-2(4,2)-pyrimidina-1,4(1,3)-dibenzenacycloundecaphane] belongs less than 100 nM. For `Cc1ccc2cc1-c1nc(ncc1Cl)Nc1cccc(c1)CNCCCN2` [Compound 35, 2^5-chloro-1^6-methyl-3,6,10-triaza-2(4,2)-pyrimidina-1,4(1,3)-dibenenacyclodecaphane], the values for the concentration for half-maximal inhibition (IC50) in experiment [1], in experiment [3] and in experiment [2] were less than 100 nM, less than 250 nM and less than 250 nM, respectively. `Cc1ccc2cc1-c1nc(ncc1Cl)Nc1cccc(c1)CNCCCCO2` [Compound 36, 2^5-chloro-1^6-methyl-11-oxy-3,6-diaza-2(4,2)-pyrimidina-1,4(1,3)-dibenzocycloundecaphane]: in experiment [1], the 50% inhibitory concentration (IC50) was less than 100 nM.

On to `Fc1cnc2nc1-c1cccc(c1)NC/C=C\CNc1cccc(c1)N2` [Compound 37, (Z)-2^5-fluoro-3,5,10-triaza-2(4,2)-pyrimidina-1,4(1,3)-dibenzenacyclooctyna-7-ene], for which the 50% inhibitory concentration (IC50) in experiment [1] is less than 100 nM.

As to `Fc1cnc2nc1-c1cccc(c1)NCCCCNc1cccc(c1)N2` [Compound 38, 2^5-fluoro-3,5,10-triaza-2(4,2)-pyrimidina-1,4(1,3)-dibenzenacyclodecaphane], the results for the half-inhibitory concentration (IC50) in experiment [1], in experiment [3] and in experiment [2] were less than 100 nM, 250 to 1000 nM and 250 to 1000 nM, respectively. `COc1ccc2cc1-c1nc(ncc1F)Nc1cccc(c1)NC/C=C\CN2` [Compound 39, (Z)-2^5-fluoro-1^6-methoxy-3,5,10-triaza-2(4,2)-pyrimidina-1,4(1,3)-dibenzenacyclooctyna-7-ene]: the values for the IC50 in experiment [1], in experiment [3] and in experiment [2] were less than 100 nM, 1000 to 5000 nM and 250 to 1000 nM, respectively. As to `COc1ccc2cc1-c1nc(ncc1F)Nc1cccc(c1)NCCCCN2` [Compound 40, 2^5-fluoro-1^6-methoxy-3,5,10-triaza-2(4,2)-pyrimidina-1,4(1,3)-dibenzenacyclodecaphane], the IC50 in experiment [1] was less than 100 nM. Turning to `Cc1ccc2cc1-c1nc(ncc1Cl)Nc1cnn(c1)CCOCCN2` [Compound 41, (E)-2^5-chloro-1^6-methyl-4^1H-7-oxa-3,10-diaza-2(4,2)-pyrimidina-4(4,1)-pyrazola-1(1,3)-benzena cyclodecaphane], the half-inhibitory concentration (IC50) is less than 100 nM in experiment [1], less than 250 nM in experiment [3] and less than 250 nM in experiment [2]. For the molecule `Clc1cnc2nc1N1CCC(C1)NCCCNCc1cccc(c1)N2` (stereo not shown) [Compound 43, 2^5-chloro-3,6,10-triaza-2(4,2)-pyrimidina-1(1,3)-pyrrolidina-4(1,3)-benzenacyclodecaphane], the IC50 in experiment [1] fell in the range of 500 to 1000 nM. On to `Clc1cnc2nc1N1CCC(C1)NCCCCNCc1cccc(c1)N2` (stereo not shown) [Compound 44, 2^5-chloro-3,6,11-triaza-2(4,2)-pyrimidina-1(1,3)-pyrrolidina-4(1,3)-benzenacycloalkaphane], for which the IC50 in experiment [1] was 500 to 1000 nM. Still for that read-out and setting: the figure for `Clc1cnc2nc1N1CCC(C1)OCCCNCc1cccc(c1)N2` (stereo not shown) [Compound 45, 2^5-chloro-10-oxa-3,6-diaza-2(4,2)-pyrimidina-1(1,3)-pyrrolidina-4(1,3)-benzenacyclodecaphane] is 100 to 500 nM; for `Clc1cnc2nc1NCCCCCn1cc(cn1)N2` [Compound 47, (E)-1^5-chloro-3^1H-2,9-diaza-1(2,4)-pyrimidina-3(4,1)-pyrazolacyclononaphane] it is 100 to 500 nM.
